This experiment has as its system B6C3F1 mice, B16 melanoma ip, median survival T/C. Kind of experiment: NCI In Vivo Anticancer Drug Screen. Data for tumor model B16 Melanoma (intraperitoneal) in B6C3F1 mice. To be noted: endpoint: median survival time, higher = longer survival. A digest of the protocol: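 Tumor-bearing mice received test compound; a separate group got vehicle only. Survival was then compared, with results reported as treated over control.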

The mark [1] stands for this setting: dose: 0.25 mg/kg/injection, schedule: Q01DX009 (ip), vehicle: saline.
Where [2] appears, read: dose: 6.25 mg/kg/injection, schedule: Q01DX009 (ip), vehicle: saline.
The mark [3] stands for this setting: dose: 12.5 mg/kg/injection, schedule: Q01DX009 (ip), vehicle: saline.
[4] abbreviates: dose: 1.56 mg/kg/injection, schedule: Q01DX009 (ip), vehicle: saline.
The mark [5] stands for this setting: dose: 3.12 mg/kg/injection, schedule: Q01DX009 (ip), vehicle: saline.
Setting [6] is: dose: 100.0 mg/kg/injection, schedule: Q01DX009 (ip), vehicle: Klucel (hydroxypropylcellulose) (HPC).
Setting [7] is: dose: 200.0 mg/kg/injection, schedule: Q01DX009 (ip), vehicle: Klucel (hydroxypropylcellulose) (HPC).
Where [8] appears, read: dose: 400.0 mg/kg/injection, schedule: Q01DX009 (ip), vehicle: Klucel (hydroxypropylcellulose) (HPC).
The mark [9] stands for this setting: dose: 50.0 mg/kg/injection, schedule: Q01DX009 (ip), vehicle: Klucel (hydroxypropylcellulose) (HPC).

Where “and” joins values, the source holds several entries; their conditions need not be identical. Equal entries are not always repeated. Toxic doses and inconclusive results are not listed. Where a SMILES comes first, the peptide text is derived from it. [ ]: non-standard residue; d: D form. The star is where a group is joined. Cbz = O=C(OCc1ccccc1)*; Nva = CCC[CH](N)C(=O)O; Bn = c1ccc(C*)cc1

Consider `O=C1N[C@@H]([C@H]2CC[C@H](Cl)CN2)C(=O)N[C@H]1[C@H]1CC[C@H](Cl)CN1`, for which the T/C by setting is: (dose: 0.25 mg/kg/injection, schedule: Q01DX005 (ip), vehicle: saline) 99 % of control; (dose: 0.25 mg/kg/injection, schedule: Q01DX005 (iv), vehicle: saline) 105 % of control; under setting [1], 107 % of control; (dose: 0.5 mg/kg/injection, schedule: Q01DX005 (ip), vehicle: saline) 100 % of control; (dose: 0.5 mg/kg/injection, schedule: Q01DX005 (iv), vehicle: saline) 95 % of control; (dose: 0.5 mg/kg/injection, schedule: Q01DX005 (oral), vehicle: saline) 96 % of control. The T/C (dose: 0.5 mg/kg/injection, schedule: Q04DX003 (ip), vehicle: saline) is 97 % of control; the T/C (dose: 1.0 mg/kg/injection, schedule: Q01DX005 (ip), vehicle: saline) was 124 % of control; the T/C (dose: 1.0 mg/kg/injection, schedule: Q01DX005 (iv), vehicle: saline) was 99 % of control; the T/C (dose: 1.0 mg/kg/injection, schedule: Q01DX005 (oral), vehicle: saline) is 99 % of control; the T/C (dose: 1.0 mg/kg/injection, schedule: Q04DX003 (ip), vehicle: saline) was 103 % of control; the T/C (dose: 2.0 mg/kg/injection, schedule: Q01DX005 (iv), vehicle: saline) was 108 % of control. Also, the T/C was 115 % of control (dose: 2.0 mg/kg/injection, schedule: Q01DX005 (oral), vehicle: saline); 108 % of control (dose: 2.0 mg/kg/injection, schedule: Q04DX003 (ip), vehicle: saline); 183 % of control (dose: 4.0 mg/kg/injection, schedule: Q01DX005 (ip), vehicle: saline); 120 % of control (dose: 4.0 mg/kg/injection, schedule: Q01DX005 (iv), vehicle: saline); 110 % of control (dose: 4.0 mg/kg/injection, schedule: Q01DX005 (oral), vehicle: saline); 112 % of control (dose: 4.0 mg/kg/injection, schedule: Q04DX003 (ip), vehicle: saline).

For the compound `CCN=C=NCCCN(C)C`, the T/C reads like this: under setting [2], 109 % of control; under setting [3], 114 % of control.

`O=P(O)(NCCCl)NCCCl`: the T/C by setting is: (dose: 25.0 mg/kg/injection, schedule: Q01DX001 (ip), vehicle: saline with Tween-80) 114 % of control and 119 % of control; (dose: 50.0 mg/kg/injection, schedule: Q01DX001 (ip), vehicle: saline with Tween-80) 115 % of control; (dose: 100.0 mg/kg/injection, schedule: Q01DX001 (ip), vehicle: saline with Tween-80) 159 % of control and 161 % of control; (dose: 200.0 mg/kg/injection, schedule: Q01DX001 (ip), vehicle: saline with Tween-80) 168 % of control and 182 % of control.

For the compound `CCCCCC(O)C1C(=O)OC(C)C(O)/C=C/C=C/C=C/C=C/C=C(\C)C(O)C(O)C(O)CC(O)CC(O)CC(O)CC(O)CC1O` (stereo unspecified), the T/C (dose: 0.5 mg/kg/injection, schedule: Q01DX009 (ip), vehicle: other) is 98 % of control; the T/C (dose: 1.0 mg/kg/injection, schedule: Q01DX009 (ip), vehicle: other) was 119 % of control; the T/C under setting [4] is 102 % of control; the T/C under setting [5] was 88 % of control; the T/C (dose: 4.0 mg/kg/injection, schedule: Q01DX009 (ip), vehicle: other) was 169 % of control; the T/C (dose: 8.0 mg/kg/injection, schedule: Q01DX009 (ip), vehicle: other) is 166 % of control.

Turning to `NNC(=S)N/N=C/c1ccccn1`, the T/C is 91 % of control under setting [4]; 117 % of control (dose: 1.56 mg/kg/injection, schedule: Q01DX009 (ip), vehicle: suspension in saline); 109 % of control under setting [5]; 113 % of control (dose: 3.12 mg/kg/injection, schedule: Q01DX009 (ip), vehicle: suspension in saline); 94 % of control under setting [2]; 102 % of control (dose: 6.25 mg/kg/injection, schedule: Q01DX009 (ip), vehicle: suspension in saline). In addition, the T/C runs as follows: under setting [3], 105 % of control; (dose: 12.5 mg/kg/injection, schedule: Q01DX009 (ip), vehicle: suspension in saline) 113 % of control; (dose: 25.0 mg/kg/injection, schedule: Q01DX009 (ip), vehicle: saline) 98 % of control.

As for `COC(=O)C(NC(=O)C(NC(=O)OCc1ccccc1)C(C)O)C(C)C` (stereo not drawn) (Cbz-Thr-Val-OMe; configuration not given here), the T/C under setting [6] was 94 % of control, the T/C under setting [7] is 93 % of control and the T/C under setting [8] was 108 % of control.

In the case of `CCCC(NC(=O)OCc1ccccc1)C(=O)NC(CCSC)C(N)=O` (stereo unspecified) (Cbz-[Nva]-Met-NH2; configuration not given here), the T/C under setting [6] was 104 % of control, the T/C under setting [7] was 103 % of control and the T/C under setting [8] is 93 % of control.

Consider `NC(=O)C(Cc1ccccc1)NC(=O)C(CSCc1ccccc1)NC(=O)OCc1ccccc1` (stereo unspecified) (Cbz-Cys(Bn)-Phe-NH2; configuration not given here), for which the T/C (dose: 25.0 mg/kg/injection, schedule: Q01DX009 (ip), vehicle: Klucel (hydroxypropylcellulose) (HPC)) was 91 % of control; the T/C under setting [9] is 109 % of control and 105 % of control; the T/C under setting [6] is 100 % of control and 103 % of control.

With `CCC(C)C(=O)OC1C(=O)OC2CC3C(C)=CC(=O)C(O)C3(C)C3C4(O)OCC23C1C(C)C4O` (stereo unspecified), the T/C reads like this: (dose: 2.5 mg/kg/injection, schedule: Q01DX009 (ip), vehicle: saline) 160 % of control; (dose: 5.0 mg/kg/injection, schedule: Q01DX009 (ip), vehicle: saline) 176 % of control.

On to `O=CC(NC(=O)N(CCF)N=O)C(O)C(O)C(O)CO` (stereo unspecified), for which the T/C (dose: 30.0 mg/kg/injection, schedule: Q01DX001 (ip), vehicle: saline) is 169 % of control; the T/C (dose: 60.0 mg/kg/injection, schedule: Q01DX001 (ip), vehicle: saline) is 210 % of control; the T/C (dose: 120.0 mg/kg/injection, schedule: Q01DX001 (ip), vehicle: saline) was 204 % of control.

For `CC1=C(CC/C(C)=C/CCC2=CCC(C3=CC(=O)OC3O)OC2O)C(C)(C)CCC1` (stereo unspecified), the T/C is 90 % of control (dose: 3.0 mg/kg/injection, schedule: Q01DX009 (ip), vehicle: Klucel (hydroxypropylcellulose) (HPC)) and 90 % of control (dose: 6.0 mg/kg/injection, schedule: Q01DX009 (ip), vehicle: Klucel (hydroxypropylcellulose) (HPC)).

In the case of `Nc1nc(SCc2ccccc2)c2ncn(C3OC(CO)CC3O)c2n1` (stereo unspecified), the T/C under setting [9] was 116 % of control and the T/C under setting [6] was 107 % of control.

As to `COc1cccc2c1C(=O)c1c(O)c3c(c(O)c1C2=O)C[C@@](O)(C(=O)COC(=O)c1cccnc1)C[C@@H]3OC1CC(N)C(O)C(C)O1` (stereo partly specified), the T/C by setting is: under setting [1], 170 % of control; (dose: 0.5 mg/kg/injection, schedule: Q01DX009 (ip), vehicle: saline) 198 % of control; (dose: 1.0 mg/kg/injection, schedule: Q01DX009 (ip), vehicle: saline) 220 % of control; (dose: 2.0 mg/kg/injection, schedule: Q01DX009 (ip), vehicle: saline) 255 % of control.

These data come from PubChem BioAssay AID200 (DTP/NCI, 2004).
